In US20240192237A1 (curantis UG, priority 2021, published 2024):

Tested on: patients with schizophrenia
Assay: PANSS assessment in clinical trials CBD-CT1 and CBD-PT
Type: in vivo
Settings: for PANSS Positive Score: baseline 22.9 ± 4.3; for PANSS Negative Score: baseline 22.5 ± 6.0; for PANSS General Score: baseline 45.0 ± 8.2; for PANSS Total Score: baseline 90.4 ± 14.1
From the text: The Ethics Committee of the Faculty of Medicine of University of Cologne approved the clinical trial with application number 00-074 on Aug. 6, 2000.
All randomized patients complied with all inclusion and exclusion criteria: age between 18 and 50, male and female, persisting inpatient hospitalization, specific DSM-IV diagnoses, initial Brief Psychiatric Rating Scale (BPRS) score≥36, understanding of the study objectives and the course of the study, legal capacity, no pregnancy or lactation phase, reliable contraception.
CBD was administered as an oral dose in a capsule formulation. The dose was increased during the first week from 200 mg/d to 800 mg/d (4×200 mg) and remained at this level for the rest of the study period. Due to serious unwanted effects, the dose could be reduced irreversibly to 600 mg/d starting with day 15. […] Dose applications, blood sampling, and assessment of PANSS followed the time schedule presented below. Additional treatment with 7.5 mg lorazepam per day during the whole study period was permitted.
On 28 Jul. 2005 this clinical trial with application number 04-153 was approved by the Ethics Committee of the Faculty of Medicine of University of Cologne.
Eighteen patients with a diagnosis of schizophrenia or schizophreniform disorder should be included in this trial per protocol. Because dropouts had to be replaced by a new patient a total number of 29 patients was randomized from February 2006 to June 2008. All randomized patients complied with all inclusion and exclusion criteria: age between 18 and 65, male and female, specific DSM-IV diagnoses, initial BPRS score≥36, no pregnancy or lactation phase, reliable contraception, no lack of accountability, no other relevant interferences, no treatment with depot-antipsychotics during the last three months, no severe internal or neurological illness, no QTc prolongation, no acute suicidality nor endangerment of others by the patient. […] Treatment lasted four weeks: the first period with two weeks of CBD or placebo treatment was followed by a second period with a two-week treatment of placebo or CBD, respectively. There was no washout period between the two treatments. […] The dose could be reduced irreversibly to 400 mg/d in case of serious unwanted effects. […] The PANSS was applied at baseline and day 14 and 28. Dose applications, blood sampling, and assessment of PANSS followed the time schedule presented below. Additional treatment with 5.0 mg lorazepam per day during the whole study period was permitted.
The Positive and Negative Syndrome Scale (PANSS) is a psychopathological scale and was developed to assess the symptom severity in patients with schizophrenia. It was first described by Kay et al. in 1987 (Kay S R, Fiszbein A, Opler L A. “The positive and negative syndrome scale (PANSS) for schizophrenia”. Schizophrenia bulletin. 1987; 13(2):261-276.) and includes 30 questions which are a combination of 18 items of the BPRS and 12 items of the Psychopathology Rating Schedule ([…]) (see Leucht S, Kane J M, Kissling W, Hamann J, Etschel E, Engel R R. “What does the PANSS mean?” Schizophrenia research. 2005; 79(2-3):231-238.) All questions are rated on a 7-point scale from 1=absence of symptoms to 7=extremely distinct symptoms. Therefore, the PANSS total score (sum score of all 30 items) can range from 30 to 210. Here applies: the lower the PANSS score the better/healthier is the patient.
The positive scale contains delusion, disorganized thoughts, hallucination, excitement, grandiosity, suspiciousness/persecution, and animosity. Blunted affect, emotional withdrawal, poor rapport, passive/apathetic social withdrawal, difficulty in abstract thinking, stereotyped thinking, lack of spontaneity, and flow of conversation are part of the negative scale. […]

Q: With C=C(C)[C@@H]1CCC(C)=C[C@H]1c1c(O)cc(CCCCC)cc1O [CBD, cannabidiol] as the molecule, how does the “PANSS Positive Score” value (Day 14, mean, SD 4.5, N 36) read?
A: The value was 18.9.

Q: And the “PANSS Negative Score” value (Day 14, mean, SD 5.6, N 36)?
A: The value was 19.0.

Q: And the “PANSS General Score” value (Day 14, mean, SD 9.6, N 36)?
A: Its value is 38.9.

Q: And the “PANSS Total Score” value (Day 14, mean, SD 17.0, N 36 (CT1 17|PT 19), oral CBD capsules 800 mg/d (CT1) or 600 mg/d (PT))?
A: Its value is 76.9.

Q: And the “PANSS Positive Score” value (Day 28, mean, SD 5.4, N 24)?
A: The value was 16.9.

Q: And the “PANSS Negative Score” value (Day 28, mean, SD 6.2, N 24)?
A: The value was 16.1.

Q: And the “PANSS General Score” value (Day 28, mean, SD 13.1, N 24)?
A: Its value is 35.9.

Q: What about the “PANSS Total Score” value (Day 28, mean, SD 23.2, N 24 (CT1 14|PT 10)) of the same molecule?
A: The value was 68.9.
